Test [1] deals with Tetranychus urticae. Briefly: Tetranychus urticae test (OP-resistant/spray treatment) (Example D): infested bean leaf discs. The class given is in vivo. The method, then: (§1) Solvent: 78 parts by weight of acetone
Bean leaf discs (Phaseolus vulgaris) which are infested with all stages of the red spider mite (Tetranychus urticae) are sprayed with an active substance preparation of the desired concentration.
After the desired period of time, the effect is determined in %.

For test [2], the system named is Myzus persicae. Briefly: Myzus persicae test (Example A): spray treatment of infested cabbage leaves. The class given is in vivo. As to conditions: Myzus persicae.
Source text: as §1

In test [3] the test system is Spodoptera frugiperda. Nature of the test: Spodoptera frugiperda larvae test (Example C): sprayed cabbage leaves populated with army worm larvae. The format is in vivo. As to conditions: for Destruction in % after 6 d: Table C second series; for Destruction in % after 2 d: Table C third series.
Source text: as §1

For test [4], the system named is Phaedon cochleariae. Nature of the test: Phaedon cochleariae larvae test (Example B): sprayed cabbage leaves populated with mustard beetle larvae. As to conditions: for pest or weed control at 100 g/ha: read-out: Destruction in % after 6 d, 100 g/ha.
[5] abbreviates: 24 h, read-out: Destruction in % after 1 d.

Like-named read-outs stand apart in the source and are kept apart here.

Regarding `O=C1C=C(N(Cc2ccc(Cl)nc2)CC(F)F)CO1` [Compound (I-5), 4-{[(6-chloropyrid-3-yl)methyl](2,2-difluoroethyl)amino}furan-2(5H)-one], the “Destruction in % after 2 d” value in test [1] (0.16 g/ha) was 0%; in test [1] (4 g/ha) it was 0%; in test [3] (4 g/ha), 0%; in test [3] (20 g/ha) it was 0%; in test [4] (0.8 g/ha, Table B first series), 0%; in test [4] (100 g/ha, Table B third series), 50%. In addition, the “Destruction in % after 6 d” value in test [1] (4 g/ha, after 6 d) is reported as 0%; in test [3] (0.16 g/ha), 0%; in test [3] (0.8 g/ha), 0%; in test [3] (20 g/ha) it was 0%; in test [4] (20 g/ha, after 6 d, Table B fourth series) it was 0%. The pest or weed control at 0.8 g/ha in test [2] (setting [5]) stood at 10%; in test [2] (144 h, read-out: Destruction in % after 6 d) it was 10%; in test [4] (Phaedon cochleariae, in Brassica oleracea, 144 h, read-out: Destruction in % after 6 d, 0.8 g/ha, after 6 d, Table B second series), 0%. In addition, the pest or weed control at 4 g/ha in test [2] (setting [5]) was found to be 70%. In addition, the pest or weed control at 0.16 g/ha in test [4] (Phaedon cochleariae, in Brassica oleracea, 144 h, read-out: Destruction in % after 6 d, 0.16 g/ha, after 6 d, Table B second series) was 0%. In addition, the pest or weed control at 100 g/ha in test [4] (Phaedon cochleariae, in Brassica oleracea, 144 h, after 6 d, Table B fourth series) was 33%; in test [4] (Phaedon cochleariae, in Brassica oleracea, 144 h, after 6 d, Table B second series (r19-r78)) it was 0%.

The record behind these values is patent US9173394B2, “Active agent combinations having insecticidal and acaricidal properties” (BAYER INTELLECTUAL PROPERTY GMBH, priority 2007, dated 2015).
